Results: PubChem BioAssay AID1963844 (Molecular Pharmacology Branch, DTP, NCI, 2024)

Tested on: 422866-222-R5-J1-PDC complex spheroid viability
Assay: Anticancer human tumor 422866-222-R5-J1-PDC patient-derived pancreatic adenocarcinoma cell line growth inhibition [POLQ]
Conditions: for IC50: curve of first compound; for viability, T/C: stronger effect = lower value
Summary of the method: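 Complex spheroid viability model combining PDC tumour cells with endothelial (HUVEC) and MSC stromal cells. Novobiocin, ART-558 or RP6685 were tested singly and in combination with standard and investigational anticancer drugs. Each was titrated in half-log steps from near clinical Cmax, or from 10 microM where Cmax was unknown.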

[1] = second compound 0.0316 µM, first compound 0.0316 µM
[2] = second compound 0.0316 µM, first compound 0.1 µM
[3] = second compound 0.0316 µM, first compound 0.316 µM
[4] = second compound 0.0316 µM, first compound 1 µM
[5] = second compound 0.0316 µM, first compound 3.16 µM
[6] = second compound 0.0316 µM, first compound 10 µM
[7] = second compound 0.1 µM, first compound 0.0316 µM
[8] = second compound 0.1 µM, first compound 0.1 µM
[9] = second compound 0.1 µM, first compound 0.316 µM
[10] = second compound 0.1 µM, first compound 1 µM
[11] = second compound 0.1 µM, first compound 3.16 µM
[12] = second compound 0.1 µM, first compound 10 µM
[13] = second compound 0.316 µM, first compound 0.0316 µM
[14] = second compound 0.316 µM, first compound 0.1 µM
[15] = second compound 0.316 µM, first compound 0.316 µM
[16] = second compound 0.316 µM, first compound 1 µM
[17] = second compound 0.316 µM, first compound 3.16 µM
[18] = second compound 0.316 µM, first compound 10 µM
[19] = second compound 1 µM, first compound 0.0316 µM
[20] = second compound 1 µM, first compound 0.1 µM
[21] = second compound 1 µM, first compound 0.316 µM
[22] = second compound 1 µM, first compound 1 µM
[23] = second compound 1 µM, first compound 3.16 µM
[24] = second compound 1 µM, first compound 10 µM
[25] = second compound 3.16 µM, first compound 0.0316 µM
[26] = second compound 3.16 µM, first compound 0.1 µM
[27] = second compound 3.16 µM, first compound 0.316 µM
[28] = second compound 3.16 µM, first compound 1 µM
[29] = second compound 3.16 µM, first compound 3.16 µM
[30] = second compound 3.16 µM, first compound 10 µM
[31] = second compound 10 µM, first compound 0.0316 µM
[32] = second compound 10 µM, first compound 0.1 µM
[33] = second compound 10 µM, first compound 0.316 µM
[34] = second compound 10 µM, first compound 1 µM
[35] = second compound 10 µM, first compound 3.16 µM
[36] = second compound 10 µM, first compound 10 µM
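Also: spheroids exposed to compounds for one week before readout.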
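For viability, T/C in this document: percent of DMSO vehicle wells luminescence so 100% = untreated viability.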

CNCc1ccc(-c2[nH]c3cc(F)cc4c3c2CCNC4=O)cc1 + COC1C(OC(N)=O)C(O)C(Oc2ccc3c(O)c(NC(=O)c4ccc(O)c(CC=C(C)C)c4)c(=O)oc3c2C)OC1(C)C
IC50 (second compound 0.0316 µM): > 10000 nM | IC50 (second compound 0.1 µM): > 10000 nM | IC50 (second compound 0.316 µM): > 10000 nM | IC50 (second compound 1 µM): > 10000 nM | IC50 (second compound 3.16 µM): > 10000 nM | IC50 (second compound 10 µM): > 10000 nM | viability, T/C [1]: 96.6% | viability, T/C [2]: 97.2% | viability, T/C [3]: 75.3% | viability, T/C [4]: 97.3% | viability, T/C [5]: 83.4% | viability, T/C [6]: 105% | viability, T/C [7]: 124% | viability, T/C [8]: 109% | viability, T/C [9]: 104% | viability, T/C [10]: 99.1% | viability, T/C [11]: 76.7% | viability, T/C [12]: 95% | viability, T/C [13]: 99.5% | viability, T/C [14]: 101% | viability, T/C [15]: 98.2% | viability, T/C [16]: 83% | viability, T/C [17]: 92% | viability, T/C [18]: 95.1% | viability, T/C [19]: 116% | viability, T/C [20]: 104% | viability, T/C [21]: 101% | viability, T/C [22]: 92.9% | viability, T/C [23]: 96.8% | viability, T/C [24]: 99% | viability, T/C [25]: 93% | viability, T/C [26]: 101% | viability, T/C [27]: 92.9% | viability, T/C [28]: 71.7% | viability, T/C [29]: 83.5% | viability, T/C [30]: 99% | viability, T/C [31]: 96.8% | viability, T/C [32]: 102% | viability, T/C [33]: 100% | viability, T/C [34]: 90% | viability, T/C [35]: 103% | viability, T/C [36]: 90.2%

COc1cccc(OCCCN)c1-c1cc(Nc2cnc(C#N)cn2)n[nH]1 + COC1C(OC(N)=O)C(O)C(Oc2ccc3c(O)c(NC(=O)c4ccc(O)c(CC=C(C)C)c4)c(=O)oc3c2C)OC1(C)C
IC50 (second compound 0.0316 µM): 4.59 nM | IC50 (second compound 0.1 µM): 4.16 nM | IC50 (second compound 0.316 µM): < 3.16 nM | IC50 (second compound 1 µM): < 3.16 nM | IC50 (second compound 3.16 µM): 5.14 nM | IC50 (second compound 10 µM): < 3.16 nM | viability, T/C (second compound 0.0316 µM, first compound 0.00316 µM): 55.9% | viability, T/C (second compound 0.0316 µM, first compound 0.01 µM): 37.4% | viability, T/C [1]: 33.7% | viability, T/C [2]: 30.7% | viability, T/C [3]: 26.7% | viability, T/C [4]: 34.3% | viability, T/C (second compound 0.1 µM, first compound 0.00316 µM): 53% | viability, T/C (second compound 0.1 µM, first compound 0.01 µM): 42.1% | viability, T/C [7]: 32.3% | viability, T/C [8]: 29.5% | viability, T/C [9]: 26.8% | viability, T/C [10]: 42.6% | viability, T/C (second compound 0.316 µM, first compound 0.00316 µM): 48.5% | viability, T/C (second compound 0.316 µM, first compound 0.01 µM): 39.9% | viability, T/C [13]: 28.5% | viability, T/C [14]: 37.7% | viability, T/C [15]: 32.1% | viability, T/C [16]: 35.1% | viability, T/C (second compound 1 µM, first compound 0.00316 µM): 55.9% | viability, T/C (second compound 1 µM, first compound 0.01 µM): 39.3% | viability, T/C [19]: 32.7% | viability, T/C [20]: 37.3% | viability, T/C [21]: 32.7% | viability, T/C [22]: 47% | viability, T/C (second compound 3.16 µM, first compound 0.00316 µM): 54.7% | viability, T/C (second compound 3.16 µM, first compound 0.01 µM): 43% | viability, T/C [25]: 41.4% | viability, T/C [26]: 30.1% | viability, T/C [27]: 41.2% | viability, T/C [28]: 32.8% | viability, T/C (second compound 10 µM, first compound 0.00316 µM): 54.2% | viability, T/C (second compound 10 µM, first compound 0.01 µM): 38.7% | viability, T/C [31]: 39.1% | viability, T/C [32]: 38% | viability, T/C [33]: 30.9% | viability, T/C [34]: 38.4%

Nc1ccn(C2OC(CO)C(O)C2(F)F)c(=O)n1 (stereo not drawn) + COC1C(OC(N)=O)C(O)C(Oc2ccc3c(O)c(NC(=O)c4ccc(O)c(CC=C(C)C)c4)c(=O)oc3c2C)OC1(C)C
IC50 (second compound 0.0316 µM): 110 nM | IC50 (second compound 0.1 µM): 94 nM | IC50 (second compound 0.316 µM): 105 nM | IC50 (second compound 1 µM): 74.6 nM | IC50 (second compound 3.16 µM): 139 nM | IC50 (second compound 10 µM): 67.4 nM | viability, T/C [1]: 73.5% | viability, T/C [2]: 49.9% | viability, T/C [3]: 40.9% | viability, T/C [4]: 33.1% | viability, T/C [5]: 28% | viability, T/C [6]: 32% | viability, T/C [7]: 75.6% | viability, T/C [8]: 47.7% | viability, T/C [9]: 40.9% | viability, T/C [10]: 33.7% | viability, T/C [11]: 32.6% | viability, T/C [12]: 36.2% | viability, T/C [13]: 74% | viability, T/C [14]: 48.2% | viability, T/C [15]: 42.5% | viability, T/C [16]: 36.1% | viability, T/C [17]: 31.7% | viability, T/C [18]: 33.4% | viability, T/C [19]: 67.3% | viability, T/C [20]: 43.1% | viability, T/C [21]: 41% | viability, T/C [22]: 36.1% | viability, T/C [23]: 38.4% | viability, T/C [24]: 34.3% | viability, T/C [25]: 61.5% | viability, T/C [26]: 54.5% | viability, T/C [27]: 38.8% | viability, T/C [28]: 37.2% | viability, T/C [29]: 34.5% | viability, T/C [30]: 38.6% | viability, T/C [31]: 62.7% | viability, T/C [32]: 43.7% | viability, T/C [33]: 37.5% | viability, T/C [34]: 35.7% | viability, T/C [35]: 39% | viability, T/C [36]: 35.4%

O=C(c1cc(Cc2n[nH]c(=O)c3ccccc23)ccc1F)N1CCN(C(=O)C2CC2)CC1 + COC1C(OC(N)=O)C(O)C(Oc2ccc3c(O)c(NC(=O)c4ccc(O)c(CC=C(C)C)c4)c(=O)oc3c2C)OC1(C)C
IC50 (second compound 0.0316 µM): < 31.6 nM | IC50 (second compound 0.1 µM): < 31.6 nM | IC50 (second compound 0.316 µM): < 31.6 nM | IC50 (second compound 1 µM): < 31.6 nM | IC50 (second compound 3.16 µM): < 31.6 nM | IC50 (second compound 10 µM): < 31.6 nM | viability, T/C [1]: 40.5% | viability, T/C [2]: 40.1% | viability, T/C [3]: 42.3% | viability, T/C [4]: 38.2% | viability, T/C [5]: 34% | viability, T/C [6]: 27.5% | viability, T/C [7]: 40.1% | viability, T/C [8]: 42.5% | viability, T/C [9]: 41.2% | viability, T/C [10]: 35.4% | viability, T/C [11]: 36.4% | viability, T/C [12]: 26.3% | viability, T/C [13]: 43.5% | viability, T/C [14]: 35.9% | viability, T/C [15]: 35.7% | viability, T/C [16]: 37.9% | viability, T/C [17]: 31% | viability, T/C [18]: 27.5% | viability, T/C [19]: 35.9% | viability, T/C [20]: 32% | viability, T/C [21]: 37.1% | viability, T/C [22]: 37.4% | viability, T/C [23]: 27.4% | viability, T/C [24]: 24.5% | viability, T/C [25]: 39.9% | viability, T/C [26]: 34.6% | viability, T/C [27]: 38.4% | viability, T/C [28]: 36.7% | viability, T/C [29]: 33.7% | viability, T/C [30]: 28.3% | viability, T/C [31]: 38.9% | viability, T/C [32]: 30.9% | viability, T/C [33]: 35.7% | viability, T/C [34]: 32.9% | viability, T/C [35]: 29.3% | viability, T/C [36]: 27.8%
